Laboratory results taken from PubChem BioAssay AID328 (DTP/NCI, 2004).
Inconclusive results and toxic doses are left out.

System: BDF1 mice, P388 leukemia ip, median survival T/C
Test: NCI In Vivo Anticancer Drug Screen. Data for tumor model P388 Leukemia (intraperitoneal) in B6D2F1 (BDF1) mice
Settings: endpoint: median survival time, higher = longer survival
Procedure, shortened: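 T/C = treated-group survival ÷ vehicle-control survival; tumour transplanted into mice before dosing.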

[1] = dose: 50.0 mg/kg/injection, schedule: Q01DX009 (ip), vehicle: saline with Tween-80
[2] = dose: 100.0 mg/kg/injection, schedule: Q01DX009 (ip), vehicle: saline with Tween-80
[3] = dose: 200.0 mg/kg/injection, schedule: Q01DX009 (ip), vehicle: saline with Tween-80
[4] = dose: 100.0 mg/kg/injection, schedule: Q04DX003 (ip), vehicle: saline with Tween-80
[5] = dose: 200.0 mg/kg/injection, schedule: Q04DX003 (ip), vehicle: saline with Tween-80
[6] = dose: 400.0 mg/kg/injection, schedule: Q01DX009 (ip), vehicle: saline with Tween-80
[7] = dose: 400.0 mg/kg/injection, schedule: Q04DX003 (ip), vehicle: saline with Tween-80

## CC[C@]1(O)C[C@H]2CN(CCc3c([nH]c4ccccc34)[C@@](C(=O)OC)(c3cc4c(cc3OC)N(C)[C@H]3[C@@](O)(C(=O)OC)[C@H](OC(C)=O)[C@]5(CC)C=CCN6CC[C@]43[C@@H]65)C2)C1
dose: 0.03 mg/kg/injection, schedule: Q03HX024 (ip), vehicle: saline
  T/C: 185 % of control
dose: 0.06 mg/kg/injection, schedule: Q03HX016 (ip), vehicle: saline
  T/C: 162 % of control
dose: 0.12 mg/kg/injection, schedule: Q01DX009 (ip), vehicle: saline
  T/C: 166 % of control
dose: 0.12 mg/kg/injection, schedule: Q01DX009 (ip), vehicle: water
  T/C: 252 % of control
dose: 0.12 mg/kg/injection, schedule: Q03HX016 (ip), vehicle: saline
  T/C: 222 % of control
dose: 0.12 mg/kg/injection, schedule: Q03HX024 (ip), vehicle: saline
  T/C: 222 % of control
dose: 0.25 mg/kg/injection, schedule: Q01DX009 (ip), vehicle: saline
  T/C: 185 % of control
dose: 0.25 mg/kg/injection, schedule: Q01DX009 (ip), vehicle: water
  T/C: 240 % of control
dose: 0.25 mg/kg/injection, schedule: Q01DX010 (ip), vehicle: water
  T/C: 209 % of control
dose: 0.25 mg/kg/injection, schedule: Q03HX008 (ip), vehicle: saline
  T/C: 185 % of control
dose: 0.25 mg/kg/injection, schedule: Q03HX016 (ip), vehicle: saline
  T/C: 214 % of control
dose: 0.25 mg/kg/injection, schedule: Q04DX003 (ip), vehicle: saline
  T/C: 166 % of control
dose: 0.5 mg/kg/injection, schedule: Q01DX009 (ip), vehicle: saline
  T/C: 214 % of control
dose: 0.5 mg/kg/injection, schedule: Q01DX009 (ip), vehicle: water
  T/C: 222 % of control
dose: 0.5 mg/kg/injection, schedule: Q01DX010 (ip), vehicle: water
  T/C: 195 % of control
dose: 0.5 mg/kg/injection, schedule: Q04DX003 (ip), vehicle: saline
  T/C: 196 % of control
dose: 0.5 mg/kg/injection, schedule: Q08DX002 (ip), vehicle: saline
  T/C: 170 % of control
dose: 0.65 mg/kg/injection, schedule: Q04DX003 (ip), vehicle: saline
  T/C: 200 % of control
dose: 1.0 mg/kg/injection, schedule: Q01DX009 (ip), vehicle: saline
  T/C: 92 % of control
dose: 1.0 mg/kg/injection, schedule: Q03HX008 (ip), vehicle: saline
  T/C: 200 % of control
dose: 1.0 mg/kg/injection, schedule: Q03HX016 (ip), vehicle: saline
  T/C: 96 % of control
dose: 1.0 mg/kg/injection, schedule: Q04DX003 (ip), vehicle: saline
  T/C: 214 % of control
dose: 1.0 mg/kg/injection, schedule: Q08DX002 (ip), vehicle: saline
  T/C: 188 % of control
dose: 1.08 mg/kg/injection, schedule: Q04DX003 (ip), vehicle: saline
  T/C: 193 % of control
dose: 1.8 mg/kg/injection, schedule: Q04DX003 (ip), vehicle: saline
  T/C: 234 % of control
dose: 2.0 mg/kg/injection, schedule: Q01DX001 (ip), vehicle: saline
  T/C: 162 % of control
dose: 2.0 mg/kg/injection, schedule: Q01DX001 (ip), vehicle: water
  T/C: 150 % of control
dose: 2.0 mg/kg/injection, schedule: Q04DX003 (ip), vehicle: saline
  T/C: 96 % of control
dose: 2.0 mg/kg/injection, schedule: Q08DX002 (ip), vehicle: saline
  T/C: 214 % of control
dose: 3.0 mg/kg/injection, schedule: Q04DX003 (ip), vehicle: saline
  T/C: 95 % of control
dose: 4.0 mg/kg/injection, schedule: Q01DX001 (ip), vehicle: saline
  T/C: 185 % of control
dose: 4.0 mg/kg/injection, schedule: Q01DX001 (ip), vehicle: water
  T/C: 161 % of control
dose: 4.0 mg/kg/injection, schedule: Q08DX002 (ip), vehicle: saline
  T/C: 100 % of control
dose: 8.0 mg/kg/injection, schedule: Q01DX001 (ip), vehicle: saline
  T/C: 177 % of control
dose: 8.0 mg/kg/injection, schedule: Q08DX002 (ip), vehicle: saline
  T/C: 96 % of control
dose: 16.0 mg/kg/injection, schedule: Q01DX001 (ip), vehicle: saline
  T/C: 188 % of control
dose: 625.0 micrograms/kg/injection, schedule: Q04DX003 (ip), vehicle: saline
  T/C: 200 % of control
dose: 648.0 micrograms/kg/injection, schedule: Q04DX003 (ip), vehicle: saline
  T/C: 180 % of control
dose: 1080.0 micrograms/kg/injection, schedule: Q04DX003 (ip), vehicle: saline
  T/C: 195 % of control
dose: 1250.0 micrograms/kg/injection, schedule: Q04DX003 (ip), vehicle: saline
  T/C: 238 % of control
dose: 1800.0 micrograms/kg/injection, schedule: Q04DX003 (ip), vehicle: saline
  T/C: 190 % of control
dose: 2500.0 micrograms/kg/injection, schedule: Q04DX003 (ip), vehicle: saline
  T/C: 230 % of control

## c1csc(C2Nc3ccccc3N2)c1
[1]
  T/C: 105 % of control
[2]
  T/C: 99 % of control
[3]
  T/C: 119 % of control

## CN(C=C(C#N)C#N)c1ccccc1
[1]
  T/C: 105 % of control

## CC1(C(=O)O)CCC(C(=O)Nc2ccccc2)C1(C)C (centres undefined)
[2]
  T/C: 92 % of control
[4]
  T/C: 100 % of control
[3]
  T/C: 92 % of control
[5]
  T/C: 90 % of control
[6]
  T/C: 92 % of control
[7]
  T/C: 104 % of control

## CCCCCCCC(O)CCC (centres undefined)
dose: 100.0 mg/kg/injection, schedule: Q04DX003 (ip), vehicle: Klucel (hydroxypropylcellulose) (HPC)
  T/C: 108 % of control
dose: 200.0 mg/kg/injection, schedule: Q04DX003 (ip), vehicle: Klucel (hydroxypropylcellulose) (HPC)
  T/C: 100 % of control
dose: 400.0 mg/kg/injection, schedule: Q04DX003 (ip), vehicle: Klucel (hydroxypropylcellulose) (HPC)
  T/C: 87 % of control

## C#CC1(OCC2CO2)CCCCC1 (centres undefined)
dose: 100.0 mg/kg/injection, schedule: Q01DX009 (ip), vehicle: saline
  T/C: 92 % of control
dose: 100.0 mg/kg/injection, schedule: Q04DX003 (ip), vehicle: saline
  T/C: 110 % of control
dose: 200.0 mg/kg/injection, schedule: Q01DX009 (ip), vehicle: saline
  T/C: 103 % of control
dose: 200.0 mg/kg/injection, schedule: Q04DX003 (ip), vehicle: saline
  T/C: 110 % of control
dose: 400.0 mg/kg/injection, schedule: Q01DX009 (ip), vehicle: saline
  T/C: 92 % of control

## CC(=O)Oc1cc2cnc3c4cc(OC(C)=O)c(OC(C)=O)cc4ccc3c2cc1OC(C)=O
dose: 0.62 mg/kg/injection, schedule: Q01DX009 (ip), vehicle: saline
  T/C: 106 % of control
dose: 1.25 mg/kg/injection, schedule: Q01DX009 (ip), vehicle: saline
  T/C: 94 % of control
dose: 2.5 mg/kg/injection, schedule: Q01DX009 (ip), vehicle: saline
  T/C: 97 % of control
dose: 5.0 mg/kg/injection, schedule: Q01DX009 (ip), vehicle: saline
  T/C: 86 % of control
dose: 20.0 mg/kg/injection, schedule: Q01DX009 (ip), vehicle: saline
  T/C: 109 % of control
dose: 80.0 mg/kg/injection, schedule: Q01DX009 (ip), vehicle: saline
  T/C: 86 % of control
dose: 120.0 mg/kg/injection, schedule: Q01DX009 (ip), vehicle: saline
  T/C: 90 % of control
dose: 240.0 mg/kg/injection, schedule: Q01DX009 (ip), vehicle: saline
  T/C: 95 % of control

## N#CC1=C(N)NC(=O)C(C(N)=O)C1c1ccccc1Cl (centres undefined)
dose: 50.0 mg/kg/injection, schedule: Q01DX005 (ip), vehicle: saline with Tween-80
  T/C: 89 % of control
dose: 100.0 mg/kg/injection, schedule: Q01DX005 (ip), vehicle: saline with Tween-80
  T/C: 92 % of control
dose: 200.0 mg/kg/injection, schedule: Q01DX005 (ip), vehicle: saline with Tween-80
  T/C: 92 % of control

## COc1cccc(C(O)c2ccncc2C)c1OC (centres undefined)
dose: 12.5 mg/kg/injection, schedule: Q04DX003 (ip), vehicle: water
  T/C: 103 % of control
dose: 25.0 mg/kg/injection, schedule: Q04DX003 (ip), vehicle: water
  T/C: 97 % of control
dose: 50.0 mg/kg/injection, schedule: Q04DX003 (ip), vehicle: water
  T/C: 102 % of control
dose: 100.0 mg/kg/injection, schedule: Q04DX003 (ip), vehicle: water
  T/C: 112 % of control
dose: 200.0 mg/kg/injection, schedule: Q04DX003 (ip), vehicle: water
  T/C: 97 % of control

## [Cl][Pt+2]([Cl])([Cl])[Cl].[Na+].[S-]c1ncnc2nc[nH]c12.[S-]c1ncnc2nc[nH]c12
[2]
  T/C: 120 % of control
[4]
  T/C: 100 % of control
[5]
  T/C: 100 % of control
dose: 300.0 mg/kg/injection, schedule: Q01DX009 (ip), vehicle: saline with Tween-80
  T/C: 113 % of control
[6]
  T/C: 112 % of control
[7]
  T/C: 122 % of control

## COC(C)c1cnccc1C(C)c1cc2ccccc2[nH]1 (centres undefined)
dose: 100.0 mg/kg/injection, schedule: Q01DX001 (ip), vehicle: saline with Tween-80
  T/C: 105 % of control
dose: 200.0 mg/kg/injection, schedule: Q01DX001 (ip), vehicle: saline with Tween-80
  T/C: 108 % of control
